Test results as given in patent US11952349B2, “Anti-cancer nuclear hormone receptor-targeting compounds” (Nuvation Bio Inc., priority 2019, dated 2024).

Assays:
Human recombinant PARP2 = Human recombinant PARP2 (Homo sapiens, UniProt Q9UGN5); assay: RBC HotSpot PARP2 assay (radioisotope-based filter binding); assay type: biochemical; conditions: Table 9; read-out: PARP2
Method: The following methods are for evaluating the in vitro biology properties of the test articles. • a. RBC HotSpot Poly(ADP-ribose) Polymerases 1 (PARP1) and Poly(ADP-ribose) Polymerases 2 (PARP2) Assays: The assay was conducted at Reaction Biology Corporation (RBC; Malvern, PA). The assay principle is radioisotope-based filter binding assay where incorporation of radioisotope-labeled NAD^+ into the substrate captured on filter is detected after washout free NAD^+. Data were analyzed using Excel and GraphPad Prism software for IC50 curve fits. Each assay was conducted with PJ34 as a positive control. PARP1 assay: Human recombinant PARP1 at a final concentration of 2.5 nM was combined with histone H4 (20 μM) and test articles at various concentrations in reaction buffer (50 mM Tris-HCL, pH 8.0, 50 mM NaCl, 10 mM MgCl2, 1 mM DTT, 1% DMSO, and 20 μg/mL activated DNA). The solution was inoculated for 20 min at room temperature and the reaction initiated by adding [adenylate-^32P]-Nicotinamide Adenine Dinucleotide, ^32P-NAD^+ at a final concentration of 10 μM. After incubation for 2 hrs at room temperature, the reaction mixture was filtered and washed with 0.75% phosphoric acid for radioactivity detection. • ii. PARP2 assay: Human recombinant PARP2 at a final concentration of 2.5 nM was combined with histone H3 (20 μM) and test articles at various concentrations in reaction buffer (50 mM Tris-HCL, pH 8.0, 50 mM NaCl, 10 mM MgCl2, 1 mM DTT, 1% DMSO, and 20 μg/mL activated DNA). The solution was inoculated for 20 min at room temperature and the reaction was initiated by adding [adenylate-^32P]-Nicotinamide Adenine Dinucleotide, ^32P-NAD^+ at a final concentration of 10 μM. After incubation for 2 hrs at room temperature, the reaction mixture was filtered and washed with 0.75% phosphoric acid for radioactivity detection. • b. AR binding assay: AR in LNCaP cytosol was used for determining the binding affinity of test articles and the reference compound—progesterone (Sigma, Cat: E2785, St. Louis, MO). IC50 s were determined using 8 concentrations/compound. Cytosol is plated at 200 μg/well (100 μL) into a 96-well conical polypropylene plate (Agilent, Cat: 5042-1385, Santa Clara, CA) and mixed with 3 μL of test compound. After adding 100 μL of ^3H-methyltrienolone (PerkinElmer, Cat: NET590250UC, San Jose, CA), the plate was sealed and shaken at 300 rpm at 4° C. for 24 hours. Post incubation, 100 μL of radioligand adsorption buffer containing 10 mM Tris-HCl, pH 7.4; 1.5 mM EDTA; 1 mM DTT; 0.25% charcoal; 0.0025% dextran was added to individual wells. Plate was shaken for 15 min at 4° C. followed by centrifugation at 3000 rpm for 30 min at 4° C. 150 μL of supernatant is transferred into scint-tube (PerkinElmer, Cat: 6000192) and mixed with 2 mL of Ultima Gold Cocktail (PerkinElmer, Cat: 6013329). Radioactivity is counted using a TriCarb 2910 TR scintillation counter (PerkinElmer). Inhibition of the radioactivity by test articles was calculated using the equation below: % Inhibition=(1−(Assay well−Average_LC)/(Average_HC−Average_LC))×100%. • IC50 values (Table 6) were calculated and graphed using the model “log(inhibitor) vs. response—Variable slope” included in GraphPad Prism 5 (San Diego, CA). The Ki values were further calculated using the equation below where [L] is the radioligand concentration (1 nM) used in this study. Kd value was 0.332 nM. Ki=IC50/(1+[L]/Kd) • c. AR transactivation: Human AR cloned into a CMV vector backbone is used for the transactivation study. HEK-293 cells are plated at 80,000 cells per well of a 24 well plate in DME+5% csFBS. Twenty four hours later, the cells are transfected using Lipofectamine (Invitrogen, Carlsbad, CA) with 0.25 μg GRE-LUC, 0.01 μg CMV-LUC (renilla luciferase) and 25 ng of the AR in OPTIMEM medium. The cells are treated 24 hrs after transfection with various ligands (10^−12 to 10^−5 M final concentrations) and luciferase assay performed 48 hours after transfection. […]

[1] = biological target: T1, ligand binding domain of the glucocorticoid receptor (Homo sapiens, UniProt P04150); assay: GR antagonism assay (HEK293, dexamethasone 1.5 nM, Dual-glo); assay type: cell-based; conditions: Table 8
T1 construct: expressed in transfected cells
T1 sequence (P04150 524-758 limits assumed): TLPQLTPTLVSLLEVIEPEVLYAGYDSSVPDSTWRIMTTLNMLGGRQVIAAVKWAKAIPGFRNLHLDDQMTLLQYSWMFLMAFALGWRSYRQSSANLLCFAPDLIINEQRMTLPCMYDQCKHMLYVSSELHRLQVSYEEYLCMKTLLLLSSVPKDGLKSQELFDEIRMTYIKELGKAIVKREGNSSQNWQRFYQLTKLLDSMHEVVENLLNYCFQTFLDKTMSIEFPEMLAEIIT
Method: GR antagonism assay: To evaluate GR antagonist activity, test compound was added to the assay plate (top dose 5 μM, 4 fold serial dilution, 8 point dose response). HEK293 cells stably expressing the ligand binding domain of the glucocorticoid receptor were seeded at a density of 40000 cells/well in the assay plate. The assay plate was then incubated at 37° C., 5% CO2 for 30 minutes. Dexamethasone was added to the assay plate at 1.5 nM final concentration and the assay plate was incubated at 37° C., 5% CO2 for 20 h. After the incubation period, Dual-glo luciferase reagent was added to the assay plate and mixed at room temperature for 20 minutes on an orbital shaker, before reading out on the EnVision plate reader.

[2] = biological target: T2, Progesterone Receptor (PR)-LBD (Homo sapiens, UniProt P06401); assay: PR coactivator antagonist assay; assay type: biochemical; conditions: Table 8; 10 nM progesterone; read-out: PR antagonism
T2 sequence (P06401 679-913 limits assumed): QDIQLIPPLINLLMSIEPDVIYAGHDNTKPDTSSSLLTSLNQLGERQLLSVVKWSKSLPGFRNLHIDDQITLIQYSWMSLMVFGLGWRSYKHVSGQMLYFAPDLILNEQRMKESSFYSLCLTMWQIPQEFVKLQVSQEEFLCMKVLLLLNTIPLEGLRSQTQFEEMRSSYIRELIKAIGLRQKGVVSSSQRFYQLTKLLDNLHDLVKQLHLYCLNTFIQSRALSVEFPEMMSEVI
Method: PR coactivator antagonist assay: Test compound (Top dose 10 μM, 4 fold serial dilution, 8 point dose response) and/or vehicle was incubated with the 2.5 nM Progesterone Receptor (PR)-LBD and coactivator peptide for 30 minutes at RT. Determination of the amount of complex formed is read spectrofluorimetrically (excitation: 337 nm, emission: 520/490 nm). Test compound-induced inhibition of 10 nM progesterone-induced fluorescence response by 50 percent or more (>50%) indicates receptor antagonist activity.

Sequence of Human recombinant PARP2 (Q9UGN5 whole entry): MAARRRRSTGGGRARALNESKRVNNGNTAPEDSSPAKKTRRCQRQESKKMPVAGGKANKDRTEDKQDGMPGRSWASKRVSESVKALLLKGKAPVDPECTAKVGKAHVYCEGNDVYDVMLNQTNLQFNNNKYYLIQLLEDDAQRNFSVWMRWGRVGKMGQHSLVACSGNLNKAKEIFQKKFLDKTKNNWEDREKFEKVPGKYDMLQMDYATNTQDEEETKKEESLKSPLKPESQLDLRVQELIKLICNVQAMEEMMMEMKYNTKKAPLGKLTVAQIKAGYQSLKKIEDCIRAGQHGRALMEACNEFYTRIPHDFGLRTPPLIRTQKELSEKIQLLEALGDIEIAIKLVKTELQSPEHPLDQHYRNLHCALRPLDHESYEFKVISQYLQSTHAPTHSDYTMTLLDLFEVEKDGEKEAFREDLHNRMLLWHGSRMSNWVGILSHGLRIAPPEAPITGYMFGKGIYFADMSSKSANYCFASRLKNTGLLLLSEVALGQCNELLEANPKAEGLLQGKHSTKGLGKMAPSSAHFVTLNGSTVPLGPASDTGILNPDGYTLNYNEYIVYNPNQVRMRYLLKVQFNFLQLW

IC50 (Human recombinant PARP2): < 1 nM
IC50 [1]: 10 to 100 nM
IC50 [2]: < 10 nM
Compound: CC#C[C@]1(O)CC[C@H]2[C@@H]3CCC4=CC(=O)CCC4=C3[C@@H](c3ccc(N(C)CCCCCC(=O)NCCOCCOCC(=O)N4CCN(C(=O)c5cc(Cc6n[nH]c(=O)c7ccccc67)ccc5F)CC4)cc3)C[C@@]21C [Compound 1429, N-(2-(2-(2-(4-(2-fluoro-5-((4-oxo-3,4-dihydrophthalazin-1-yl)methyl)benzoyl)piperazin-1-yl)-2-oxoethoxy)ethoxy)ethyl)-6-((4-((8S,11R,13S,14S,17S)-17-hydroxy-13-methyl-3-oxo-17-(prop-1-ynyl)-2,3,6,7,8,11,12,13,14,15,16,17-dodecahydro-1H-cyclopenta[a]phenanthren-11-yl)phenyl)(methyl)amino)hexanamide]
